Nine compounds from US20150299155A1, “Sesquiterpene lactone-based pharmaceutical composition for treating gastrointestinal diseases” (CHO DANG PHARM. CO., LTD., priority 2012, published 2015) can be followed below.

The structures appear in SMILES notation. Marks after values point to notes of the source that are not given here.

A word on the ED50: it is the dose that gives a 50% effect, or the effect in half of the subjects.

Series [1] relates to HCl-Ethanol inducing gastritis model. In words: HCl-Ethanol inducing gastritis model. As to conditions: for anti-gastritis efficacy: all administration groups. The series is classed as in vivo, white rats. The procedure:
After white rats have been fasted for 24 hours, CD-101, CD-102 and CD-103 compound have been orally administered according to method disclosed in Mizui et al., Jap. J. Pharmacol. 33: pp. 939-945 (1983). After 1 hour, 1.5 ml of 60% ethanol including 150 mM HCl has been orally administered to each animal. 1 hour later, animals have been sacrificed by cervical dislocation. After removing the stomach, the stomach has been fixed by injection of 13 ml of 2% formalin for 1 hour. After fixed stomach has been spread out, the lesion area has been measured using the photo by digital camera. Computer program Image J 1.38 (NIH, Bethesda, Md.) has been applied for measuring gastric lesion area (mm^2) The lesion inhibition rate has been calculated according to following equation. Further, 50% effective dose (ED50) has been also calculated using regression analysis.
Lesion inhibition rate(%)={gastric lesion area of control group(mm^2)−gastric lesion area of drug administration group(mm^2)}/gastric lesion area of control group(mm^2)×100

Series [2] deals with Chinese hamster lung (CHL) cell. Put plainly: Chromosomal aberration test using Chinese hamster lung (CHL) cell. The series is classed as cell-based. The settings on record: for induction of chromosomal aberration: CHL cell, overall conclusion. An excerpt:
For measuring the induction of chromosomal aberration, the chromosomal aberration test has been carried out using Chinese hamster lung (CHL) cell. 2 kinds of methods have been adopted, such as, metabolic activation method (+S9) using metabolic activation system and direct method (−S9) without metabolic activation system.
For determining the test material reacting concentration, the cell growth inhibition test has been carried out. The test material has been dissolved and diluted in dimethyl sulfoxide (DMSO). Regardless of metabolic activation system, 12 concentration steps (2.43, 4.87, 9.75, 19.5, 39.1, 78.1, 156.3, 312.5, 625, 1250, 2500, 5000 μg/ml) of test material have been prepared. The cells have been cultured for 24 hours as the same way of main test. […] The medium has been further cultured for 18 hours.
Based upon the data of cell growth inhibition test, maximum concentration has been determined when the cell growth has been inhibited up to 50% as the relative cell numbers.
Regardless of metabolic activation system, the test materials have been prepared after 24 hours from the initiation of test. Then, the number of chromosomal aberration has been counted.

For series [3], the system named is indomethacin inducing stomach ulcer model. In words: Indomethacin inducing stomach ulcer model. As to conditions: oral; for anti-stomach ulcer efficacy: all administration groups. The series is classed as in vivo, white rats. The procedure: After white rats have been fasted for 24 hours, CD-101, CD-102 and CD-103 compound have been orally administered according to method disclosed in Yamasaki et al., Jap. J. Pharmacol. 49: pp. 441-448 (1989). After 1 hour, indomethacin (50 mg/kg) has been orally administered to each animal After fasting for 5 hours, animals have been sacrificed by cervical dislocation. After removing the stomach, the stomach has been fixed by injection of 13 ml of 2% formalin for 1 hour. After fixed stomach has been spread out, the lesion area has been measured using the photo by digital camera. Computer program Image J 1.38 (NIH, Bethesda, Md.) has been applied for measuring gastric lesion area (mm^2) The lesion inhibition rate and 50% effective dose (ED50) have been calculated as the same manner of HCl-EtOH model.

As for `CC1=C2C3OC(=O)[C@@H](C)[C@@H]3CC[C@@]2(C)C=CC1=O` (stereo partly drawn), the Lesion inhibition rate result in series [1] (Table 2, ineffective compounds, dose not stated) is “no effect”.

As to `C=C1C(=O)O[C@@H]2[C@@H](O)[C@]3(C)CC[C@H]3[C@](C)(OC)CC[C@@H]12` [CD-101], the “Chromosomal aberration test Results” value is recorded as “negative” in series [2] (+S9, dose 10 μg/kg); “negative” in series [2] (+S9, dose 20 μg/kg); “negative” in series [2] (+S9, dose 40 μg/kg); “negative” in series [2] (−S9, dose 2.5 μg/ml); “negative” in series [2] (−S9, dose 5 μg/kg); “negative” in series [2] (−S9, dose 10 μg/kg). Besides, in series [2], the “induction of chromosomal aberration” value is on record as “do not induce the chromosomal aberration”. Moreover, the anti-stomach ulcer efficacy result in series [3] is reported as “dose dependent manner”. In addition, the Lesion inhibition rate in series [3] (dose 1 mg/kg) is recorded as 26.9%; in series [3] (dose 3 mg/kg), 56.6%; in series [3] (dose 10 mg/kg) it was 73.1%; in series [1] (oral, dose 1 mg/kg) it was 42.3%; in series [1] (oral, dose 3 mg/kg), 74.7%; in series [1] (oral, dose 10 mg/kg), 91.8%. Further, in series [1] (oral), the anti-gastritis efficacy entry is on record as “dose dependent manner”.

For the compound `C=C1C(=O)O[C@@H]2[C@@H]3[C@@H](CC[C@@]3(C)O)C(=C)CC[C@@H]12` [CD-102], the “Chromosomal aberration test Results” value was “negative” in series [2] (+S9, dose 5 μg/kg); “negative” in series [2] (+S9, dose 10 μg/kg); “negative” in series [2] (+S9, dose 20 μg/kg); “negative” in series [2] (−S9, dose 1.25 μg/kg); “negative” in series [2] (−S9, dose 2.5 μg/ml); “negative” in series [2] (−S9, dose 5 μg/kg). Also, the “induction of chromosomal aberration” value in series [2] was “do not induce the chromosomal aberration”. In addition, the ED50 came out at 1.82 mg/kg in series [3] (Rattus norvegicus, regression analysis of lesion inhibition, read-out: 50% effective dose (ED50)) and 1.31 mg/kg in series [1] (Rattus norvegicus, oral, regression analysis of lesion inhibition, read-out: 50% effective dose (ED50)). Moreover, the anti-stomach ulcer efficacy result in series [3] is given as “dose dependent manner”. Besides, the Gastric lesion area in series [3] (dose 1 mg/kg) was 35.0 ± 5.2 mm^2; in series [3] (dose 3 mg/kg), 26.3 ± 6.8* mm^2; in series [3] (dose 10 mg/kg), 13.6 ± 2.9* mm^2; in series [1] (oral, dose 1 mg/kg), 133.5 ± 21.0* mm^2; in series [1] (oral, dose 3 mg/kg) it was 69.4 ± 18.4* mm^2; in series [1] (oral, dose 10 mg/kg), 11.9 ± 10.0* mm^2. Further, the Lesion inhibition rate stood at 41.6% in series [3] (dose 1 mg/kg); 56.1% in series [3] (dose 3 mg/kg); 77.2% in series [3] (dose 10 mg/kg); 43.0% in series [1] (oral, dose 1 mg/kg); 70.4% in series [1] (oral, dose 3 mg/kg); 94.9% in series [1] (oral, dose 10 mg/kg). In addition, the anti-gastritis efficacy entry in series [1] (oral) is “dose dependent manner”.

In the case of `C=C1C(=O)O[C@@H]2[C@@H]3[C@@H](CC[C@@]3(C)O)[C@](C)(OC)CC[C@@H]12` [CD-103], the “Chromosomal aberration test Results” value in series [2] (+S9, dose 2.5 μg/ml) was “negative”; in series [2] (+S9, dose 5 μg/kg), “negative”; in series [2] (+S9, dose 10 μg/kg), “negative”; in series [2] (−S9, dose 0.625 μg/kg) it was “negative”; in series [2] (−S9, dose 1.25 μg/kg), “negative”; in series [2] (−S9, dose 2.5 μg/ml) it was “negative”. The “induction of chromosomal aberration” value in series [2] is reported as “do not induce the chromosomal aberration”. For the same compound, the anti-stomach ulcer efficacy result in series [3] is reported as “dose dependent manner”. Moreover, the Lesion inhibition rate came out at 37.9% in series [3] (dose 1 mg/kg); 57.3% in series [3] (dose 3 mg/kg); 74.0% in series [3] (dose 10 mg/kg); 56.9% in series [1] (oral, dose 1 mg/kg); 66.9% in series [1] (oral, dose 3 mg/kg); 99.5% in series [1] (oral, dose 10 mg/kg). Further, the Lesion inhibition rate in series [1] (oral, dose 30 mg/kg) is 99.5%. For the same compound, the “50% effective dose (ED50)” value in series [3] (regression analysis of lesion inhibition) is recorded as 2.06 mg/kg; in series [1] (oral, regression analysis of lesion inhibition) it was 2.55 mg/kg. Further, in series [1] (oral), the anti-gastritis efficacy entry was “dose dependent manner”.

In the case of `CO[C@@]12[C@H](COC(N)=O)C3=C(C(=O)C(C)=C(N)C3=O)N1C[C@@H]1N[C@@H]12` [Mitomycin C, reference compound], the “Chromosomal aberration test Results” value in series [2] (−S9, dose 0.5 μg/kg) is “positive”.

For `O=C(NC(Cc1cc(=O)[nH]c2ccccc12)C(=O)O)c1ccc(Cl)cc1` (stereo not drawn) [Rebamipide, reference compound], the Lesion inhibition rate in series [3] (dose 50 mg/kg) is 49.6%; in series [1] (oral, dose 50 mg/kg), 30%.

`C=C1C(=O)O[C@@H]2/C=C(\C)CC/C=C(\C)C[C@@H](OC(C)=O)C12` (stereo partly drawn) [reference compound]: the “Chromosomal aberration test Result” value in series [2] (Table 5, +S9, dose not stated) is “positive positive”; in series [2] (Table 5, −S9, dose not given), “positive positive”.

For `C=C1C(=O)O[C@@H]2/C=C(\C)CCC(O)C(C)(O)C[C@@H](OC(C)=O)C12` (stereo partly drawn) [reference compound], the “Chromosomal aberration test Result” value in series [2] (Table 5, +S9, dose not stated) is on record as “positive positive”; in series [2] (Table 5, −S9, dose not given) it was “positive positive”.

Consider `CC(=O)O[C@@H]1/C=C(\C)CCC/C(C)=C/[C@H]2OC(=O)[C@H](CN(C)C)C12` (stereo partly drawn) [reference compound], for which the “Chromosomal aberration test Result” value is recorded as “positive positive” in series [2] (Table 5, +S9, dose not stated) and “positive positive” in series [2] (Table 5, −S9, dose not given).
